Assays:
SW480 = assay: cells; type: cell-based; details: for Basal_Viability ATP SW480 IC50/EC50: assay number 24
Colo320 = assay: cells; type: cell-based; details: for Basal_Viability ATP Colo 320 IC50/EC50: assay number 27
RKO = assay: cells; type: cell-based; details: for Basal_Viability ATP RKO IC50/EC50: assay number 29
[1] = system: endothelial tube formation in co-cultures of ECFCs and ADSCs treated with VEGF; assay: cells; type: cell-based, human
DLD-1 = assay: cells; type: cell-based; details: for Basal_Viability ATP DLD-1 IC50/EC50: assay number 23
[2] = system: ECFC/ADSC co-culture cell nuclei number
HT-29 = assay: cells; type: cell-based; details: for Basal_Viability ATP HT-29 IC50/EC50: assay number 28
HCT116 = assay: cells; type: cell-based; details: for IC50/EC50, Basal_Viability ATP HCT116 (assay number 25) / Basal_Viability ATP HCT116 IC50/EC50: basal; for Basal_Viability ATP HCT116 IC50/EC50: assay number 25
[3] = system: HCT116 cells treated with a GSK3β inhibitor; assay: cells; type: cell-based; details: for IC50/EC50, GSK3b inh pretreated_Viability ATP HCT116 (assay number 26): GSK3b inh pretreated; for GSK3b inh pretreated_Viability ATP HCT116 IC50/EC50: assay number 26, GSK3b inhibitor pretreated
SNU-C1 = assay: cells; type: cell-based; details: for Basal_Viability ATP SNU-C1 IC50/EC50: assay number 30

CN1CCN(CCCN2c3ccccc3Sc3ccc(S(=O)(=O)N(C)C)cc32)CC1 [NCGC00179625-03]
IC50/EC50, Basal_Viability ATP SW480 (assay number 24) (SW480; basal): > 20 µM | IC50/EC50, Basal_Viability ATP Colo 320 (assay number 27) (Colo320; basal): 8.1661 µM | IC50/EC50, Basal_Viability ATP RKO (assay number 29) (RKO; basal): 5.9932 µM | IC50/EC50, VEGF_ADSC\ECFC Angio CD31 TubeArea (assay number 2) [1]: > 10 µM | IC50/EC50, Basal_Viability ATP DLD-1 (assay number 23) (DLD-1; basal): 14.5523 µM | IC50/EC50, VEGF_ADSC\ECFC Angio Hoechst NucArea (assay number 3) [2]: > 10 µM | IC50/EC50, Basal_Viability ATP HT-29 (assay number 28) (HT-29; basal): > 20 µM | IC50/EC50, Basal_Viability ATP HCT116 (assay number 25) (HCT116): > 20 µM | IC50/EC50, GSK3b inh pretreated_Viability ATP HCT116 (assay number 26) [3]: > 20 µM | IC50/EC50, Basal_Viability ATP SNU-C1 (assay number 30) (SNU-C1; basal): 2.1198 µM

Cc1c(O)cc2c(c1C)O[C@](C)(CCC[C@H](C)CCC[C@H](C)CCCC(C)C)CC2 [NCGC00185764-03]
Basal_Viability ATP SW480 IC50/EC50 (SW480; basal): > 20 µM | Basal_Viability ATP Colo 320 IC50/EC50 (Colo320; basal): > 20 µM | Basal_Viability ATP RKO IC50/EC50 (RKO; basal): > 20 µM | VEGF_ADSC\ECFC Angio CD31 TubeArea IC50/EC50 [1]: > 10 µM | Basal_Viability ATP DLD-1 IC50/EC50 (DLD-1; basal): > 20 µM | VEGF_ADSC\ECFC Angio Hoechst NucArea IC50/EC50 [2]: > 10 µM | Basal_Viability ATP HT-29 IC50/EC50 (HT-29; basal): > 20 µM | Basal_Viability ATP HCT116 IC50/EC50 (HCT116): > 20 µM | GSK3b inh pretreated_Viability ATP HCT116 IC50/EC50 [3]: > 20 µM | Basal_Viability ATP SNU-C1 IC50/EC50 (SNU-C1; basal): > 20 µM

C=CC(C)(O)CCC=C(C)CCC=C(C)C (stereo not shown) [NCGC00344526-01]
Basal_Viability ATP SW480 IC50/EC50 (SW480; concentration response): > 20 µM | Basal_Viability ATP Colo 320 IC50/EC50 (Colo320; concentration response): 10.2751 µM | Basal_Viability ATP RKO IC50/EC50 (RKO; concentration response): > 20 µM | VEGF_ADSC\ECFC Angio CD31 TubeArea IC50/EC50 [1]: > 10 µM | Basal_Viability ATP DLD-1 IC50/EC50 (DLD-1; concentration response): > 20 µM | VEGF_ADSC\ECFC Angio Hoechst NucArea IC50/EC50 [2]: > 10 µM | Basal_Viability ATP HT-29 IC50/EC50 (HT-29; concentration response): > 20 µM | Basal_Viability ATP HCT116 IC50/EC50 (HCT116; concentration response): > 20 µM | GSK3b inh pretreated_Viability ATP HCT116 IC50/EC50 ([3]; concentration response): > 20 µM | Basal_Viability ATP SNU-C1 IC50/EC50 (SNU-C1; concentration response): > 20 µM

O=C(Nc1ccc(Br)cc1)c1cc(Br)c(Br)s1 [NCGC00160448-02]
Basal_Viability ATP SW480 IC50/EC50 (SW480; basal): 0.1229 µM | Basal_Viability ATP Colo 320 IC50/EC50 (Colo320; basal): 0.018 µM | Basal_Viability ATP RKO IC50/EC50 (RKO; basal): 0.4312 µM | VEGF_ADSC\ECFC Angio CD31 TubeArea IC50/EC50 [1]: > 10 µM | Basal_Viability ATP DLD-1 IC50/EC50 (DLD-1; basal): 0.3353 µM | VEGF_ADSC\ECFC Angio Hoechst NucArea IC50/EC50 [2]: > 10 µM | Basal_Viability ATP HT-29 IC50/EC50 (HT-29; basal): 0.5199 µM | Basal_Viability ATP HCT116 IC50/EC50 (HCT116): 0.5412 µM | GSK3b inh pretreated_Viability ATP HCT116 IC50/EC50 [3]: 0.3423 µM | Basal_Viability ATP SNU-C1 IC50/EC50 (SNU-C1; basal): 1.0991 µM

CC1=C(/C=C/C(C)=C/C=C/C(C)=C/C(=O)Nc2ccc(O)cc2)C(C)(C)CCC1 [NCGC00090752-12]
IC50/EC50, Basal_Viability ATP SW480 (assay number 24) (SW480; basal): 4.8504 µM | IC50/EC50, Basal_Viability ATP Colo 320 (assay number 27) (Colo320; basal): 3.2421 µM | IC50/EC50, Basal_Viability ATP RKO (assay number 29) (RKO; basal): 1.718 µM | IC50/EC50, VEGF_ADSC\ECFC Angio CD31 TubeArea (assay number 2) [1]: 1.3414 µM | IC50/EC50, Basal_Viability ATP DLD-1 (assay number 23) (DLD-1; basal): 9.4899 µM | IC50/EC50, VEGF_ADSC\ECFC Angio Hoechst NucArea (assay number 3) [2]: 6.2365 µM | IC50/EC50, Basal_Viability ATP HT-29 (assay number 28) (HT-29; basal): 2.1199 µM | IC50/EC50, Basal_Viability ATP HCT116 (assay number 25) (HCT116): 5.2999 µM | IC50/EC50, GSK3b inh pretreated_Viability ATP HCT116 (assay number 26) [3]: 4.9507 µM | IC50/EC50, Basal_Viability ATP SNU-C1 (assay number 30) (SNU-C1; basal): 6.6943 µM

CCN(CC)C(=O)c1cccnc1 [NCGC00166026-02]
Basal_Viability ATP SW480 IC50/EC50 (SW480; basal): > 20 µM | Basal_Viability ATP Colo 320 IC50/EC50 (Colo320; basal): > 20 µM | Basal_Viability ATP RKO IC50/EC50 (RKO; basal): > 20 µM | VEGF_ADSC\ECFC Angio CD31 TubeArea IC50/EC50 [1]: > 10 µM | Basal_Viability ATP DLD-1 IC50/EC50 (DLD-1; basal): > 20 µM | VEGF_ADSC\ECFC Angio Hoechst NucArea IC50/EC50 [2]: > 10 µM | Basal_Viability ATP HT-29 IC50/EC50 (HT-29; basal): > 20 µM | Basal_Viability ATP HCT116 IC50/EC50 (HCT116): > 20 µM | GSK3b inh pretreated_Viability ATP HCT116 IC50/EC50 [3]: > 20 µM | Basal_Viability ATP SNU-C1 IC50/EC50 (SNU-C1; basal): > 20 µM

Oc1c(Br)cc(Br)c2cccnc12 [NCGC00094815-05]
IC50 (SW480; read-out: Basal_Viability ATP SW480 summarized IC50): 0.132 µM | IC50 (Colo320; read-out: Basal_Viability ATP Colo 320 summarized IC50): 0.114 µM | IC50 (RKO; read-out: Basal_Viability ATP RKO summarized IC50): 0.163 µM | IC50 ([1]; read-out: VEGF_ADSC\ECFC Angio CD31 TubeArea summarized IC50): > 10 µM | IC50 (DLD-1; read-out: Basal_Viability ATP DLD-1 summarized IC50): 0.157 µM | IC50 ([2]; read-out: VEGF_ADSC\ECFC Angio Hoechst NucArea summarized IC50): > 10 µM | IC50 (HT-29; read-out: Basal_Viability ATP HT-29 summarized IC50): 5.25 µM | IC50 (HCT116; read-out: Basal_Viability ATP HCT116 summarized IC50): 0.193 µM | IC50 ([3]; read-out: GSK3b inh pretreated_Viability ATP HCT116 summarized IC50): 0.183 µM | IC50 (SNU-C1; read-out: Basal_Viability ATP SNU-C1 summarized IC50): 0.366 µM
